Test results published in ChEMBL document CHEMBL5506024, “Multitarget μ-Opioid Receptor Agonists─Neuropeptide FF Receptor Antagonists Induce Potent Antinociception with Reduced Adverse Side Effects” (J Med Chem, 2024).
pEC50, pKi: −log10 of the molar value. Calls of active or inactive are those of the source. The calls are words filed in the database; no cut-off is given here. Numbered stars: 1 amine (or outer) side, 2 acyl side, 3 side chain; on linkers, the order of the positions; unused ones are H or OH. Square brackets hold non-standard residues; d marks the D form. Peptide text beside a SMILES is read from it. Nva(5-(4-Bn-piperidin-1-yl)) = N[C@@H](CCCN1CCC(Cc2ccccc2)CC1)C(=O)O; X1 = O=C1[C@@H](N[*:1])Cc2ccccc2CN1CCC(=O)[*:2]; Dmt = Cc1cc(O)cc(C)c1C[C@H](N)C(=O)O

Legend:
[1] = biological target: T1, Kappa-type opioid receptor (Homo sapiens, UniProt P41145); test: Partial agonist activity at human KOR expressed in HEK293 cells assessed as forskolin-induced cAMP accumulation in presence of IBMX; type: functional, cell-based; conditions: filed as partial agonist
[2] = biological target: T2, Neuropeptide FF receptor 2 (Homo sapiens, UniProt Q9Y5X5); test: Displacement of [125I]-1DMeNPFF from human NPFFR2 expressed in CHO cell membrane at 0.05 uM incubated for 1 hr by Topcount counting method relative to control; type: cell membranes; conditions: filed as antagonist
[3] = biological target: T3, Neuropeptide FF receptor 1 (Homo sapiens, UniProt Q9GZQ6); test: Displacement of [125I]-1DMeNPFF from human NPFFR1 expressed in CHO cell membrane at 0.5 uM incubated for 1 hr by Topcount counting method relative to control; type: cell membranes
[4] = biological target: T4, Prolactin-releasing peptide receptor (Homo sapiens) (UniProt P49683); test: Agonist activity at human GPR10 expressed in CHO cells assessed as intracellular calcium release upto 10 uM by Fluo-4 AM dye based calcium mobilization assay; type: functional, cell-based
T4 sequence (whole entry): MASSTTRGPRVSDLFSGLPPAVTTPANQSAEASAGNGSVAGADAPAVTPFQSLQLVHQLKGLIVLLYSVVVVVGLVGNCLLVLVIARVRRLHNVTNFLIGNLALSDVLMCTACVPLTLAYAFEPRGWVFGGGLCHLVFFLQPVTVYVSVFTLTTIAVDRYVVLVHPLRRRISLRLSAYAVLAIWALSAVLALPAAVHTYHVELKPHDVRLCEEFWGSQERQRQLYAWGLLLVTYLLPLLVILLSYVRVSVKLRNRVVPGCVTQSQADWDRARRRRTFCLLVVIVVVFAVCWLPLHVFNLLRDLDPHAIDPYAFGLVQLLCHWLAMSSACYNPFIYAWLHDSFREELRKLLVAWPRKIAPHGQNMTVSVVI

[5] = Drug metabolism in human plasma assessed as H-Aba-betaAla-Bpa-Phe-NH2 formation measured upto 270 mins by LC-MS analysis; type: ADME, cell-free; conditions: 4.5 h
[6] = biological target: Delta-type opioid receptor (Homo sapiens) (UniProt P41143); test: Agonist activity at human DOP expressed in HEK293 cells assessed as inhibition of forskolin-induced cAMP accumulation; type: functional, cell-based; conditions: filed as agonist
[7] = biological target: T3, Neuropeptide FF receptor 1; test: Displacement of [125I]-1DMeNPFF from human NPFFR1 expressed in CHO cell membrane incubated for 1 hr by Topcount counting method; type: cell membranes
[8] = biological target: T5, Pyroglutamylated RF-amide peptide receptor (Homo sapiens) (UniProt Q96P65); test: Antagonist activity at human GPR103 expressed in CHO cells assessed as intracellular calcium release upto 10 uM by Fluo-4 AM dye based calcium mobilization assay; type: functional, cell-based
T5 sequence (whole entry): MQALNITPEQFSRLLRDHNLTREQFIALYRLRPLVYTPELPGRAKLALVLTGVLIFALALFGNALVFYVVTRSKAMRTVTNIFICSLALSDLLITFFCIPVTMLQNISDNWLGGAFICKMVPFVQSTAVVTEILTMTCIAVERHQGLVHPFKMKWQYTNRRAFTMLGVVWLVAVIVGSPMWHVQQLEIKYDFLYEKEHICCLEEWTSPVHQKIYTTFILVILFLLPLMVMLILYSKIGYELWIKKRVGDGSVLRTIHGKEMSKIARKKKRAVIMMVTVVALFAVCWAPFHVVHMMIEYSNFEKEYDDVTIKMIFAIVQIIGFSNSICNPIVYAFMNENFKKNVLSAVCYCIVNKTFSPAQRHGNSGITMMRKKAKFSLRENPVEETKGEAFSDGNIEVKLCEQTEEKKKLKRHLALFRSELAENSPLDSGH

Mu-type opioid receptor [9] = biological target: T6, Mu-type opioid receptor (Homo sapiens, UniProt P35372); test: Agonist activity at human MOP expressed in HEK293 cells coexpressing GloSensor-20F assessed as inhibition of forskolin-induced cAMP accumulation; type: functional, cell-based
Mus musculus [10] = test: Antinociceptive activity in mouse at 2.5 to 10 mg/kg, sc measured after 6 hrs by tail immersion test; type: functional, organism-based; conditions: dose 2.5-10 mg/kg
[11] = biological target: T5, Pyroglutamylated RF-amide peptide receptor (Homo sapiens); test: Agonist activity at human GPR103 expressed in CHO cells assessed as intracellular calcium release upto 10 uM by Fluo-4 AM dye based calcium mobilization assay; type: functional, cell-based
Mu-type opioid receptor [12] = biological target: T6, Mu-type opioid receptor; test: Agonist activity at human MOP expressed in HEK293 cells coexpressing GloSensor-20F assessed as inhibition of forskolin-induced cAMP accumulation relative to control; type: functional, cell-based; conditions: filed as agonist
[13] = Drug metabolism in human plasma assessed as H-Dmt-D-Pro-OH formation measured upto 270 mins by LC-MS analysis; type: ADME, cell-free; conditions: 4.5 h
Mu-type opioid receptor [14] = biological target: T6, Mu-type opioid receptor; test: Agonist activity at human Rluc8-tagged MOP expressed in HEK293 cells coexpressing eYFP-tagged beta-arrestin-2 assessed as beta-arrestin-2 recruitment incubated for 5 mins by luminometer analysis; type: functional, cell-based
[15] = Drug concentration in mouse plasma at 10 mg/kg, sc measured after 2 hrs by LC-MS/MS analysis; type: ADME, organism-based
[16] = biological target: T2, Neuropeptide FF receptor 2; test: Displacement of [125I]-1DMeNPFF from human NPFFR2 expressed in CHO cell membrane incubated for 1 hr by Topcount counting method; type: cell membranes
[17] = biological target: KiSS-1 receptor (Homo sapiens) (UniProt Q969F8); test: Antagonist activity at human GPR54 expressed in CHO cells assessed as intracellular calcium release upto 10 uM by Fluo-4 AM dye based calcium mobilization assay; type: functional, cell-based
[18] = Half life in mouse at 10 mg/kg, sc measured upto 24 hrs by LC-MS/MS analysis; type: ADME, organism-based; conditions: in vivo
[19] = Cmax in mouse at 10 mg/kg, sc measured upto 24 hrs by LC-MS/MS analysis; type: ADME, organism-based; conditions: in vivo
[20] = biological target: Nociceptin receptor (Homo sapiens) (UniProt P41146); test: Agonist activity at human NOR expressed in HEK293 cells assessed as forskolin-induced cAMP accumulation; type: functional, cell-based
[21] = biological target: T2, Neuropeptide FF receptor 2; test: Antagonist activity at human NPFFR2 expressed in CHO cell membrane assessed as inhibition of NPVF induced cAMP response at 5 uM incubated for 1 hr by Topcount counting method relative to control; type: functional, cell membranes; set-up: scale not given: the % may be the effect or the level left; conditions: filed as antagonist
[22] = biological target: KiSS-1 receptor (Homo sapiens) (UniProt Q969F8); test: Agonist activity at human GPR54 expressed in CHO cells assessed as intracellular calcium release upto 10 uM by Fluo-4 AM dye based calcium mobilization assay; type: functional, cell-based
[23] = biological target: T3, Neuropeptide FF receptor 1; test: Antagonist activity at human NPFFR1 expressed in CHO cell membrane assessed as inhibition of NPVF induced cAMP response at 5 uM incubated for 1 hr by Topcount counting method relative to control; type: functional, cell membranes; set-up: scale not given: the % may be the effect or the level left; conditions: filed as antagonist
[24] = biological target: T4, Prolactin-releasing peptide receptor (Homo sapiens); test: Antagonist activity at human GPR10 expressed in CHO cells assessed as intracellular calcium release upto 10 uM by Fluo-4 AM dye based calcium mobilization assay; type: functional, cell-based
[25] = Tmax in mouse at 10 mg/kg, sc measured upto 24 hrs by LC-MS/MS analysis; type: ADME, organism-based; conditions: in vivo
[26] = biological target: T2, Neuropeptide FF receptor 2; test: Antagonist potency at human NPFFR2 expressed in CHO cell membrane assessed as inhibition of NPVF induced cAMP response incubated for 1 hr by Topcount counting method; type: functional, cell membranes; conditions: read-out: pA2 (converted)
[27] = biological target: T3, Neuropeptide FF receptor 1; test: Antagonist potency at human NPFFR1 expressed in CHO cell membrane assessed as inhibition of NPVF induced cAMP response incubated for 1 hr by Topcount counting method; type: functional, cell membranes; conditions: read-out: pA2 (converted)
[28] = Induction of naltrexone-precipitated withdrawal syndrome in sc dosed C57BL/6N mouse assessed as paw tremor administered for 8 days followed by naltrexone addition on day 9 after 2 hrs post last dose and measured after 30 mins; type: toxicity, organism-based; conditions: in vivo, 216.5 h, time 12990 min
[29] = biological target: T1, Kappa-type opioid receptor; test: Antagonist activity at human KOR expressed in HEK293 cells assessed as forskolin-induced cAMP accumulation in presence of IBMX; type: functional, cell-based; conditions: read-out: pA2 (converted)
[30] = biological target: Nociceptin receptor (Homo sapiens) (UniProt P41146); test: Antagonist activity at human NOR expressed in HEK293 cells assessed as forskolin-induced cAMP accumulation in presence of IBMX; type: functional, cell-based; conditions: filed as antagonist
[31] = Induction of naltrexone-precipitated withdrawal syndrome in sc dosed C57BL/6N mouse assessed as diarrhea administered for 8 days followed by naltrexone addition on day 9 after 2 hrs post last dose and measured after 30 mins; type: toxicity, organism-based; conditions: in vivo, 216.5 h, time 12990 min
[32] = Induction of motor coordination impairment in C57BL/6 mouse at 12 mg/kg, sc by rotarod assay; type: toxicity, organism-based; conditions: in vivo
[33] = Induction of naltrexone-precipitated withdrawal syndrome in sc dosed C57BL/6N mouse assessed as wet dog shake counts administered for 8 days followed by naltrexone addition on day 9 after 2 hrs post last dose and measured after 30 mins; type: toxicity, organism-based; conditions: in vivo, 216.5 h, time 12990 min
Mus musculus [34] = test: Antinociceptive activity in mouse at 4.2 umol/kg, sc administered chronically and measured on day 1; type: functional, organism-based; conditions: dose 4.2 µmol/kg
Mus musculus [35] = test: Antinociceptive activity in mouse at 4.2 umol/kg, sc administered daily and measured on day 1 and 8; type: functional, organism-based; conditions: dose 4.2 µmol/kg
[36] = Induction of naltrexone-precipitated withdrawal syndrome in sc dosed C57BL/6N mouse assessed as high jumping score administered for 8 days followed by naltrexone addition on day 9 after 2 hrs post last dose and measured after 30 mins; type: toxicity, organism-based; conditions: in vivo, 216.5 h, time 12990 min
Mus musculus [37] = test: Antinociceptive activity in mouse at 4.2 umol/kg, sc administered chronically and measured on day 8; type: functional, organism-based; conditions: dose 4.2 µmol/kg
[38] = Toxicity in C57BL/6N mouse assessed as induction of respiratory depression by measuring decrease in pulmonary rate at 4 to 36 mg/kg, sc by plethysmography; type: organism-based; conditions: in vivo, dose 4-36 mg/kg
Mu-type opioid receptor [39] = biological target: T6, Mu-type opioid receptor; test: Agonist activity at human Rluc8-tagged MOP expressed in HEK293 cells coexpressing eYFP-tagged beta-arrestin-2 assessed as beta-arrestin-2 recruitment incubated for 5 mins by luminometer analysis relative to control; type: functional, cell-based
[40] = Induction of motor coordination impairment in C57BL/6 mouse at 20 mg/kg, sc by rotarod assay; type: toxicity, organism-based; conditions: in vivo

T3 sequence (Q9GZQ6 whole entry): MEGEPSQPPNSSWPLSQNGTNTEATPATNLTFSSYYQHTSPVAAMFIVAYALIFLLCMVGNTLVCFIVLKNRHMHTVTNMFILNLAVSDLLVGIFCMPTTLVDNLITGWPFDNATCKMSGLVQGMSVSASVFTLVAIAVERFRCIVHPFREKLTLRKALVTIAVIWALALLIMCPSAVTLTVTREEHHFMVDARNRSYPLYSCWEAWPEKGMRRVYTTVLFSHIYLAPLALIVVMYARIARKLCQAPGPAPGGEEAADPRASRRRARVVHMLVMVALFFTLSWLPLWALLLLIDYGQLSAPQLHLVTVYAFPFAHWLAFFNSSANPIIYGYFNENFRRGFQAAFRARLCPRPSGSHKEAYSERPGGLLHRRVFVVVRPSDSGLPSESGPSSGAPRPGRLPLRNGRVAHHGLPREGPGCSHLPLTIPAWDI
Sequence of KiSS-1 receptor (Homo sapiens) (Q969F8 whole entry): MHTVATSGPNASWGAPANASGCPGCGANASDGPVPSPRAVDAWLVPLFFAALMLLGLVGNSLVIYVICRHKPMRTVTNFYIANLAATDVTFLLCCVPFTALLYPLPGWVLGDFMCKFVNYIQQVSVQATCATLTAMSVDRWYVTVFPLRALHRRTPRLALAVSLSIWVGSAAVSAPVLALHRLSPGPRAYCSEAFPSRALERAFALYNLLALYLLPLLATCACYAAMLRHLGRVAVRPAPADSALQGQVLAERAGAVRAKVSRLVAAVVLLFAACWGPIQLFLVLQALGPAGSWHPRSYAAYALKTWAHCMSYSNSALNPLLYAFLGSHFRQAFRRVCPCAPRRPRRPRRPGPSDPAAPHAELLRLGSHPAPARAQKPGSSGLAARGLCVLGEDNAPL
T2 sequence (Q9Y5X5 whole entry): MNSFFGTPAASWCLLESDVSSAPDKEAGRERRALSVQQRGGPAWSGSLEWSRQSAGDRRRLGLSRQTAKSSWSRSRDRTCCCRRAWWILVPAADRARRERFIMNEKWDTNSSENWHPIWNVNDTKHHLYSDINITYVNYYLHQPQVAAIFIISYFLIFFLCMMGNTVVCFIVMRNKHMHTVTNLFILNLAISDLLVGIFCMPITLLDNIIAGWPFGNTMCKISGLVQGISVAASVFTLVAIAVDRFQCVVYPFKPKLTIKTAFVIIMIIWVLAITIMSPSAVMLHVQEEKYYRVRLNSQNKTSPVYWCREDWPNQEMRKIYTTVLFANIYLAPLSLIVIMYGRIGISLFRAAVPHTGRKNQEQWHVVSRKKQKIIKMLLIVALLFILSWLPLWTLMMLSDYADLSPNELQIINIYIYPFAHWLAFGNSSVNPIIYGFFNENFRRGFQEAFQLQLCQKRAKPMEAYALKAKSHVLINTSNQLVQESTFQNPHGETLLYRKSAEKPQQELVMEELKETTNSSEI
T6 sequence (P35372 whole entry): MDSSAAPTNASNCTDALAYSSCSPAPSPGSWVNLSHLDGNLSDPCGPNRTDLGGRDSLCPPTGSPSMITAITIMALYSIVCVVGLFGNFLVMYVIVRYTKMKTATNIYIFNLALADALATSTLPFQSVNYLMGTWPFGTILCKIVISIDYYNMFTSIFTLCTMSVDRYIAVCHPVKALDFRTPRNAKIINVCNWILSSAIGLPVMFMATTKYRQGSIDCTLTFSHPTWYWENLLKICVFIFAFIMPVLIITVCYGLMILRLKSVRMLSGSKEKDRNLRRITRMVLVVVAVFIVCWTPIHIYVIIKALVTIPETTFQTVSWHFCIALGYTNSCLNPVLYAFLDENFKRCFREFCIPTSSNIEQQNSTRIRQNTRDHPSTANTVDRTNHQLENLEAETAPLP
Sequence of Delta-type opioid receptor (Homo sapiens) (P41143 whole entry): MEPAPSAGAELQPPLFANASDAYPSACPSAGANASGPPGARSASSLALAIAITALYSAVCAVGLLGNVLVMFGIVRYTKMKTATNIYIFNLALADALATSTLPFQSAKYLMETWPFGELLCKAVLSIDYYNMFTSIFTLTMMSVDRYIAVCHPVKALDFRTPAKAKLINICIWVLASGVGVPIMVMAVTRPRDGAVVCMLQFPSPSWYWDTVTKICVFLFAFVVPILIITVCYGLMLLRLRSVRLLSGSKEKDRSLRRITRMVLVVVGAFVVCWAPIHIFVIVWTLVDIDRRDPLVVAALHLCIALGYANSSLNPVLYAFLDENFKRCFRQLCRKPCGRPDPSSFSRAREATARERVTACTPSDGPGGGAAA
Sequence of Nociceptin receptor (Homo sapiens) (P41146 whole entry): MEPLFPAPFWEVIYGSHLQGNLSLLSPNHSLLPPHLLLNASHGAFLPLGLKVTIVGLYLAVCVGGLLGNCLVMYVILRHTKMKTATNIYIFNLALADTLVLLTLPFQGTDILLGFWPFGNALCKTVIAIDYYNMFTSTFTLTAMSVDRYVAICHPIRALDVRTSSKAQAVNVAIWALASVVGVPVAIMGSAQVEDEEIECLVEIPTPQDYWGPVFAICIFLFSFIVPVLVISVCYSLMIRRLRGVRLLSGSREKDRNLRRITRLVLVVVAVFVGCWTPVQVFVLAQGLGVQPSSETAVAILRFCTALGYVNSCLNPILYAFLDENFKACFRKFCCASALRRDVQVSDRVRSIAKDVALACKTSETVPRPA
T1 sequence (P41145 whole entry): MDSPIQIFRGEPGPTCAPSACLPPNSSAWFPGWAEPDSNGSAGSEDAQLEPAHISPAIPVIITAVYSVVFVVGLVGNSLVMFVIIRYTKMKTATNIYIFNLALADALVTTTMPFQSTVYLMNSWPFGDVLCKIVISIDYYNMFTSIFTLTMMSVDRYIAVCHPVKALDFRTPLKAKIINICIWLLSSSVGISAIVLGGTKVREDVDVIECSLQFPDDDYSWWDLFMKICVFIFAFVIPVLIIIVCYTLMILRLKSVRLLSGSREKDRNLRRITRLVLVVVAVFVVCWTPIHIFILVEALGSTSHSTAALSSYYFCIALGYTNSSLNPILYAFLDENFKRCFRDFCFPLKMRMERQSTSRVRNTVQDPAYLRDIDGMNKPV

Row | SMILES | Activity [2] [%] | Activity [4] | Activity [6] | pKi [7] | Activity [8] | pEC50 (Mu-type opioid receptor [9]) | Activity (Mus musculus [10]) | Activity [11] | Emax (Mu-type opioid receptor [12]) [%] | concentration at 2 h [15] [nM] | pKi [16] | Activity [17] | half-life [18] [min] | Cmax [19] [nM] | Activity [21] [%] | Activity [22] | Activity [23] [%] | Activity [24] | Tmax [25] [min] | Kb [26] [nM] | further results
1 | Cc1cc(O)cc(C)c1C[C@H](N)C(=O)N1CCC[C@@H]1C(=O)N[C@H]1Cc2ccccc2CN(CCC(=O)N[C@@H](CCCN2CCC(Cc3ccccc3)CC2)C(=O)N[C@@H](Cc2ccccc2)C(N)=O)C1=O (H-[Dmt][dP][X1][Nva(5-(4-Bn-piperidin-1-yl))]F-NH2) | 72 | inactive | Active | 5.92 | inactive | 8.10 | Active | inactive | 50 | 10.7 | 7.54 | inactive | 16.8 | 345 | 46 | inactive | 75 | inactive | 8.34 | 380 | Activity [1]: Active; Activity [3]: 33%; Drug metabolism [5]: Metabolite_Detected; Drug metabolism [13]: Metabolite_Detected; EC50 (Mu-type opioid receptor [14]; hek293): Not Active; Activity [20]: inactive; Kb [27]: 6310 nM
2 | Cc1cc(O)cc(C)c1C[C@H](NC(=N)N)C(=O)N[C@H](CCCNC(=N)N)C(=O)N[C@H]1Cc2ccccc2CN(CCC(=O)N[C@@H](CCCN2CCC(Cc3ccccc3)CC2)C(=O)N[C@@H](Cc2ccccc2)C(N)=O)C1=O | 91 | inactive | Active | 7.12 | inactive | 8.00 | Active | inactive | 66 | 593 | 8.33 | inactive | 186 | 887 | 71 | inactive | 65 | inactive | 100 | 110 | Activity [28]: Non-Toxic; Kb [29]: 0.331 nM; Activity ([3]; filed as antagonist): 93%; Activity [30]: Active; Activity [31]: Non-Toxic; Activity [32]: Non-Toxic; Activity [33]: Non-Toxic; Activity (Mus musculus [34]): Active; pEC50 (Mu-type opioid receptor [14]; read-out: EC50): 6.92; Activity (Mus musculus [35]): Active; Activity [36]: Toxic; Activity (Mus musculus [37]): inactive; Kb [27]: 240 nM; Activity [38]: Non-Toxic; Emax (Mu-type opioid receptor [39]): 15%
3 | CN(C)CCC=C1c2ccccc2CCc2ccccc21 [AMITRIPTYLINE] |  |  |  |  |  |  |  |  |  |  |  |  |  |  |  |  |  |  |  |  | Activity [40]: Toxic
